Measured values from patent US5266463A, “Highly sensitive assay method for L-carnitine and composition for practicing same” (Asahi Kasei Kogyo Kabushiki Kaisha, priority 1990, dated 1993).
Where “and” joins values, the source holds several entries; their conditions need not be identical. Equal entries are not always repeated. Where two headings read alike, the source gives them in different places. Blank lines part the entries; values can stand above or below the molecule they belong to.

Tested on: L-carnitine dehydrogenase (EC 1.1.1.108) produced by Alcaligenes sp. No. 981 FERM BP-2570
Experiment: Km-value determination of L-carnitine dehydrogenase (diaphorase/NBT coupled reaction)
Assay type: biochemical
Source text: The L-carnitine dehydrogenase used in the composition for assay of L-carnitine according to the present invention can be an enzyme having reactivity on a substrate of L-carnitine together with a suitable coenzyme NAD or thio-NAD. Its suitability can be confirmed by using the said coenzyme and substrate. L-carnitine dehydrogenase produced by Alcaligenes sp. No. 981 (product of Toyo Jozo Co.) has a relative activity of approx. 15% when coenzyme thio-NAD is used, as compared to use of NAD.
Km-value for NAD is measured in various concentrations of NAD^* in a reaction mixture of:
100 mM Tris-HCl buffer (pH 9.0)
5U diaphorase (Toyo Jozo Co.)
0.025% NBT (Wako Pure Chem. Co.)
1% polyoxyethylene (20) sorbitan monooleate (80) (Wako Pure Chem. Co.) and
In the reaction mixture, 50 mM L-carnitine is replaced by 1 mM NAD , and the concentration of L-carnitine is varied to measure the Km-value of L-carnitine.
The results are as shown above.

Compound: C[N+](C)(C)C[C@H](O)CC(=O)[O-] [L-carnitine]
Km (L-carnitine concentration varied, 1 mM NAD, 100 mM Tris-HCl buffer (pH 9.0), diaphorase, NBT, read-out: Km-value (L-carnitine)): 9300 µM

Compound: NC(=O)c1ccc[n+]([C@@H]2O[C@H](COP(=O)([O-])OP(=O)(O)OC[C@H]3O[C@@H](n4cnc5c(N)ncnc54)[C@H](O)[C@@H]3O)[C@@H](O)[C@H]2O)c1 [NAD, nicotinamide adenine dinucleotide]
Km (NAD concentration varied, 50 mM L-carnitine, 100 mM Tris-HCl buffer (pH 9.0), diaphorase, NBT, read-out: Km-value (NAD)): 140 µM and 141 µM

Km (coenzyme thio-NAD, under the same conditions as NAD, read-out: Km-value (thio-NAD)): 400 µM
Compound: NC(=S)c1ccc[n+]([C@@H]2O[C@H](COP(=O)([O-])OP(=O)(O)OC[C@H]3O[C@@H](n4cnc5c(N)ncnc54)[C@H](O)[C@@H]3O)[C@@H](O)[C@H]2O)c1 [thio-NAD, thionicotinamide adenine dinucleotide]
